The values that follow come from US10464890B2, “PGAM1 inhibitors and methods related thereto” (Emory University, priority 2011, dated 2019).

The assay deals with H1299 cells xenograft. The experiment in a line: H1299 xenograft in nude mice. It counts as in vivo.
The mark [1] stands for this setting: 100 mg/kg/day i.p. for 21 days from 6 days post-injection, vs vehicle.

Regarding `O=C1c2ccccc2C(=O)c2c1cc(S(=O)(=O)Nc1ccc(C(F)(F)F)cc1)c(O)c2O` [PGMI-004A, N-(4-trifluoromethyl)-penyl-3,4-dihydroxy-9,10-dioxo-2-anthracenesulfonamide], under setting [1], the tumor growth result is given as “significantly decreased” and the tumor size result was “significantly decreased”. The “PGAM1 enzyme activity in resected tumors” value (xenograft nude mice treated with PGMI-004A) is given as “effectively inhibits PGAM1 enzyme activity”.
